Laboratory results taken from patent publication US9902696B2, “1,4-substituted piperidine derivatives” (Cephalon, Inc., priority 2015, dated 2018).
Counter-ions that a name gives are not always drawn.

What follows are compounds tested against T1, recombinant human baculovirus-expressed GST-tagged FASN (Homo sapiens, UniProt P49327) (assay: FASN enzyme activity assay, fluorescence-based detection of CoA with CPM). Conditions: 5 nM FASN, 150 μM NADPH, 10 μM acetyl-CoA, 25 μM malonyl-CoA, 90 minutes incubation; read-out: IC50 data for Additional Compounds of Formulae I-V(a): Activity.
T1 construct: GST
T1 sequence (P49327 whole entry): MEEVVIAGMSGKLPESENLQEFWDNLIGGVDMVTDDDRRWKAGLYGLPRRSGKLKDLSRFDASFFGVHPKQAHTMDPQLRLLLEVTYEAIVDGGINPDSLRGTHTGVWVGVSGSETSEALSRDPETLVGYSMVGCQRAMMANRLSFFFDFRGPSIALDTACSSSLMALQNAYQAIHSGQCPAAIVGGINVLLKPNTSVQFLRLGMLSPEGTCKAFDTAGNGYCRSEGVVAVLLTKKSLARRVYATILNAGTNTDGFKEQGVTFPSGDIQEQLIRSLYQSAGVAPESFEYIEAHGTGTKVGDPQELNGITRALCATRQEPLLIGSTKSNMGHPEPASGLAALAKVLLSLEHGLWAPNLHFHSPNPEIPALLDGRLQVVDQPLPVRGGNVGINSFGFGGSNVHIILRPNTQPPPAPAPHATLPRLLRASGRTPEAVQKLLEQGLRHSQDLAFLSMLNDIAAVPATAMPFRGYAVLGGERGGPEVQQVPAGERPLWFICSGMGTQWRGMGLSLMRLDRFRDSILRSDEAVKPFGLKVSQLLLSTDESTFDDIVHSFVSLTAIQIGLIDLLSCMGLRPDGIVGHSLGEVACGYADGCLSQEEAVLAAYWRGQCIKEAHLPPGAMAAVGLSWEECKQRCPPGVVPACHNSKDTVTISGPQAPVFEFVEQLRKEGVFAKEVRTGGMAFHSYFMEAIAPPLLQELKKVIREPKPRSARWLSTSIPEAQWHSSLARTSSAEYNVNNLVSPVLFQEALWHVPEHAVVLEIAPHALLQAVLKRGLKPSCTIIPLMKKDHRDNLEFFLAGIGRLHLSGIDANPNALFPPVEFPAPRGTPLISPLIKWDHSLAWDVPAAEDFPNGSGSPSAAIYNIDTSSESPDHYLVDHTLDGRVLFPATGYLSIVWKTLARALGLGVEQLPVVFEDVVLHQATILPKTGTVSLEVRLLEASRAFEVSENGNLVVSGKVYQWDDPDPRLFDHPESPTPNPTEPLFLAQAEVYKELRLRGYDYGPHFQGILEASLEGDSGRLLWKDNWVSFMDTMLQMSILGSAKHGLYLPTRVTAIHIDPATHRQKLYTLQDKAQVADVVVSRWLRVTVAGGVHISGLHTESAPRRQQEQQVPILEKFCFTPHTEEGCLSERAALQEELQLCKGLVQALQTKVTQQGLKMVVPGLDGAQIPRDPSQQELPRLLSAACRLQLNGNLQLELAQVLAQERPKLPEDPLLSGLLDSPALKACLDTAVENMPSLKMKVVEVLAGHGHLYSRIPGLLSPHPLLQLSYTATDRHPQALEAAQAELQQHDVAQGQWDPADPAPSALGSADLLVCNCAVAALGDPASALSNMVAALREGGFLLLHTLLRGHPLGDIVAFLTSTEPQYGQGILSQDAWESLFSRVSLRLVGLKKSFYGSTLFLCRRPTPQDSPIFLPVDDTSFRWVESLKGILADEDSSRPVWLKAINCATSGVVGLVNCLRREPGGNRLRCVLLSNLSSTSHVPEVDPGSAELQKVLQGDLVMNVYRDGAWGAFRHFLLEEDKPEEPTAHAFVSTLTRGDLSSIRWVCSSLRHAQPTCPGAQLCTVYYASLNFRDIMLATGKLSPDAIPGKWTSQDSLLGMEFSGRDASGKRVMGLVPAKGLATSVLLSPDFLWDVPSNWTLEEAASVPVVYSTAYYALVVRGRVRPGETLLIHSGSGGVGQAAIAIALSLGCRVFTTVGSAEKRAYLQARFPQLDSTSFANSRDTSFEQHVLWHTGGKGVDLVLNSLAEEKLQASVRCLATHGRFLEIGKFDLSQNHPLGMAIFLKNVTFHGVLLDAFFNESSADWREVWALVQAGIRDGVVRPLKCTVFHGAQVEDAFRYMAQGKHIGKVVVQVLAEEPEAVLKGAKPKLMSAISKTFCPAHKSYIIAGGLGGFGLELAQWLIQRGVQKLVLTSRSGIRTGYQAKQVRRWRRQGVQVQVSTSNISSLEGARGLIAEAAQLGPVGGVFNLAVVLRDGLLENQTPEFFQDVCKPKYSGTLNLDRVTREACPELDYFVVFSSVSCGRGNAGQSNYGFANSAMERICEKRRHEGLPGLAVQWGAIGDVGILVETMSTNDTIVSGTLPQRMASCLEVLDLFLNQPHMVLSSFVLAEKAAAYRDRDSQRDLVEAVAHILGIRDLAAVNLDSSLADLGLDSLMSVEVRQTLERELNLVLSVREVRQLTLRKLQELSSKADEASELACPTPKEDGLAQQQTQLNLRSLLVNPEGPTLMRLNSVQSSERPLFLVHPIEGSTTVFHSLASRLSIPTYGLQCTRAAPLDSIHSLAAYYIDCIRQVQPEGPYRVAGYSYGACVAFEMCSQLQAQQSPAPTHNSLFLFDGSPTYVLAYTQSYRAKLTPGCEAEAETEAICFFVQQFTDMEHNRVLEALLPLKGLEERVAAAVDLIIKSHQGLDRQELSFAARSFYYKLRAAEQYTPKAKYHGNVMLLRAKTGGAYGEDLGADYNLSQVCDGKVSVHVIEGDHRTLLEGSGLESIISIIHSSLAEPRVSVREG
Assay type: biochemical
Method in brief: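 Human GST-tagged FASN, baculovirus-expressed (5 nM), in 50 mM HEPES pH 7.5 with 150 μM NADPH, 10 μM acetyl-CoA, 25 μM malonyl-CoA, 0.5% DMSO; malonyl-CoA-started, 90 min. Released CoA detected with CPM (50 μM dilution), 30 min, fluorescence ex 390/em 530. IC50 from variable-slope sigmoidal fit of % inhibition versus log concentration.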
`Cc1c(-c2ccc(OC3CCN(C(=O)CCN)CC3)cc2)ccc2cccnc12` [Example 623, 3-Amino-1-[4-[4-(8-methyl-7-quinolyl)phenoxy]-1-piperidyl]propan-1-one, 2HCl] was tested, and the IC50 was 1000 to 10000 nM.
`Cc1c(-c2ccc(OC3CCN(C(=O)OCCN4CCOCC4)CC3)cc2)ccc2cccnc12` [Example 546, 2-Morpholinoethyl 4-[4-(8-methyl-7-quinolyl)phenoxy]piperidine-1-carboxylate 2HCl] gave an IC50 of 1000 to 10000 nM.
`Cc1c(-c2ccc(OC3CCN(C(=O)OC4CCOC4)CC3)cc2)ccc2cccnc12` (centres unmarked) [Example 559, Tetrahydrofuran-3-yl 4-[4-(8-methyl-7-quinolyl)phenoxy]piperidine-1-carboxylate] was tested, and the IC50 was 1 to 99 nM.
With `Cc1c(-c2ccc(OC3CCN(C(=O)[C@H](C)N)CC3)cc2)ccc2cccnc12` [Example 612, (2S)-2-Amino-1-[4-[4-(8-methyl-7-quinolyl)phenoxy]-1-piperidyl]propan-1-one 2HCl] the IC50 was 1 to 99 nM.
`Cc1c(-c2ccc(OC3CCN(C(=O)N4CCC(N5CCOCC5)CC4)CC3)cc2)ccc2cccnc12` [Example 534, [4-[4-(8-Methyl-7-quinolyl)phenoxy]-1-piperidyl]-(4-morpholino-1-piperidyl)methanone, HCl] was tested, and the IC50 was 1000 to 10000 nM.

Same assay, conditions: 5 nM FASN, 150 μM NADPH, 10 μM acetyl-CoA, 25 μM malonyl-CoA, 90 minutes incubation; read-out: IC50 data for Compounds of Formulae I-V/V(a): Activity
Work on `CCC(=O)N1CCC(Oc2ccc(-c3cnc4ccccc4c3)c(F)c2)CC1` [Example 200, 1-[4-(3-Fluoro-4-quinolin-3-yl-phenoxy)-piperidin-1-yl]-propan-1-one] yielded an IC50 of 1 to 99 nM.
Compound `COc1c(-c2ccc(OC3CCN(C(=O)N4CCCO4)CC3)cc2)ccc2cccnc12` [Example 79, Isoxazolidin-2-yl-{4-[4-(8-methoxyquinolin-7-yl)-phenoxy]-piperidin-1-yl}-methanone] has an IC50 of 1 to 99 nM.
In the case of `O=C(C1CC1)N1CCC(Oc2ccc(-c3ccc4cccnc4c3Cl)cc2F)CC1` [Example 222, {4-[4-(8-Chloroquinolin-7-yl)-2-fluorophenoxy]-piperidin-1-yl}-cyclopropyl-methanone], the IC50 is reported as 1 to 99 nM.
With `O=C([C@H]1CCCO1)N1CCC(Oc2ccc(-c3ccc4cccnc4c3NCCN3CCCC3)cc2)CC1` [Example 334, (4-{4-[8-(2-Pyrrolidin-1-yl-ethylamino)-quinolin-7-yl]-phenoxy}-piperidin-1-yl)-(R)-tetrahydrofuran-2-yl-methanone] the IC50 was 100 to 999 nM.
`Cc1ccc(C)c(C(=O)N2CCC(Oc3ccc(-c4cnc5ccccc5c4)cc3)CC2)c1` [Example 128, (2,5-Dimethylphenyl)-[4-(4-quinolin-3-yl-phenoxy)-piperidin-1-yl]-methanone, HCl] showed an IC50 of 1000 to 10000 nM.
Compound `CCC(=O)N1CCC(Oc2ccc(-c3cnc4ccccc4c3C)cc2)CC1` [Example 60] has an IC50 of 1 to 99 nM.
`CC(C)C(=O)N1CCC(Oc2ccc(-c3ccc4ccccc4c3)cc2)CC1` [Example 11, 2-Methyl-1-[4-(4-naphthalen-2-yl-phenoxy)-piperidin-1-yl]-propan-1-one] showed an IC50 of 1000 to 10000 nM.
Compound `COc1c(-c2ccc(OC3CCN(C(=O)[C@H]4CCCO4)CC3)c(F)c2)ccc2cccnc12` [Example 221, {4-[2-Fluoro-4-(8-methoxyquinolin-7-yl)-phenoxy]-piperidin-1-yl}-(R)-tetrahydrofuran-2-yl-methanone] has an IC50 of 1 to 99 nM.
Compound `Cc1cc(-c2ccc(OC3CCN(C(=O)C4CC4)CC3)cc2)cn2ccnc12` [Example 288, Cyclopropyl-{4-[4-(8-methylimidazo[1,2-a]pyridin-6-yl)-phenoxy]-piperidin-1-yl}-methanone] has an IC50 of 100 to 999 nM.
Compound `CC(C)C(=O)N1CCC(Oc2ccc(-c3cnc4ccccc4c3)c(Cl)c2)CC1` [Example 204, 1-[4-(3-Chloro-4-quinolin-3-yl-phenoxy)-piperidin-1-yl]-2-methyl-propan-1-one] has an IC50 of 100 to 999 nM.
In the case of `CCC(=O)N1CCC(Oc2ccc(-c3cnc4ccc(C)cc4c3)cc2)CC1` [Example 483, 1-{4-[4-(6-Methylquinolin-3-yl)-phenoxy]-piperidin-1-yl}-propan-1-one, HCl], the IC50 is reported as 1 to 99 nM.
For `O=C([C@H]1CCCO1)N1CCC(Oc2ccc(-c3ccc4c(Cl)nccc4c3)cc2)CC1` [Example 429, {4-[4-(1-Chloroisoquinolin-6-yl)-phenoxy]-piperidin-1-yl}-(R)-tetrahydro-furan-2-yl-methanone], the IC50 was 1 to 99 nM.
With `CCC(=O)N1CCC(Oc2ccc(-c3ccc4cc(C)cnc4c3)cc2)CC1` [Example 280, 1-{4-[4-(3-Methylquinolin-7-yl)-phenoxy]-piperidin-1-yl}-propan-1-one] the IC50 was 1 to 99 nM.
`CCC(=O)N1CCC(Oc2ccc(-c3ccc4cccnc4c3C)cc2F)CC1` [Example 225, 1-{4-[2-Fluoro-4-(8-methylquinolin-7-yl)-phenoxy]-piperidin-1-yl}-propan-1-one] showed an IC50 of 1 to 99 nM.
In the case of `O=C([C@H]1CCCO1)N1CCC(Oc2ccc(-c3ccc4c(Cl)ccnc4c3)cc2)CC1` [Example 257, {4-[4-(4-Chloroquinolin-7-yl)-phenoxy]-piperidin-1-yl}-(R)-tetrahydro-furan-2-yl-methanone, TFA salt], the IC50 is reported as 1 to 99 nM.
With `CCC(=O)N1CCC(Oc2ccc(-c3cnc4ccccc4c3OC)cc2)CC1` [Example 50, 1-{4-[4-(4-Methoxyquinolin-3-yl)-phenoxy]-piperidin-1-yl}-propan-1-one] the IC50 was 100 to 999 nM.
For `COc1c(-c2ccc(OC3CCN(C(=O)C4CC4)CC3)c(F)c2)ccc2cccnc12` [Example 220, Cyclopropyl-{4-[2-fluoro-4-(8-methoxyquinolin-7-yl)-phenoxy]-piperidin-1-yl}-methanone], the IC50 was 1 to 99 nM.
Work on `CCC(=O)N1CCC(Oc2ccc(-c3ccc4cccnc4c3OCCN3CCCC3)cc2)CC1` [Example 173, 1-(4-{4-[8-(2-Pyrrolidin-1-yl-ethoxy)-quinolin-7-yl]-phenoxy}-piperidin-1-yl)-propan-1-one, HCl] yielded an IC50 of 1000 to 10000 nM.
Compound `Cc1cc(-c2ccc(OC3CCN(C(=O)[C@H]4CCCO4)CC3)cc2)c2cccnc2c1` [Example 353, (R)-(4-(4-(7-Methylquinolin-5-yl)phenoxy)piperidin-1-yl)(tetrahydrofuran-2-yl)methanone] has an IC50 of 1 to 99 nM.
With `Cc1c(-c2ccc(OC3CCN(C(=O)[C@H]4CCCO4)CC3)cc2)ccc2cnccc12` [Example 468, {4-[4-(5-Methylisoquinolin-6-yl)-phenoxy]-piperidin-1-yl}-(R)-tetrahydro-furan-2-yl-methanone, HCl] the IC50 was 1 to 99 nM.
Work on `CCC(=O)N1CCC(Oc2ccc(-c3ccc4cccnc4c3C)cc2)C(C)C1` (mixture of isomers) [Example 375, 1-{3-Methyl-4-[4-(8-methylquinolin-7-yl)-phenoxy]-piperidin-1-yl}-propan-1-one, TFA salt] yielded an IC50 of 1 to 99 nM.
Work on `Cc1c(-c2ccc(OC3CCN(C(=O)C4CC4)CC3)c(F)c2)cnc2ccccc12` [Example 229, Cyclopropyl-{4-[2-fluoro-4-(4-methylquinolin-3-yl)-phenoxy]-piperidin-1-yl}-methanone] yielded an IC50 of 100 to 999 nM.
In the case of `O=C(C1CCC1)N1CCC(Oc2ccc(-c3cncc(Oc4ccccc4)c3)cc2)CC1` [Example 400, Cyclobutyl-{4-[4-(5-phenoxypyridin-3-yl)-phenoxy]-piperidin-1-yl}-methanone, HCl], the IC50 is reported as 1000 to 10000 nM.
For `CCC(=O)N1CCC(Oc2ccc(-c3cncc(-c4ccccc4)c3)cc2)CC1` [Example 382, 1-{4-[4-(5-Phenylpyridin-3-yl)-phenoxy]-piperidin-1-yl}-propan-1-one], the IC50 was 1000 to 10000 nM.
`CCC(=O)N1CCC(Oc2ccc(-c3cnc4cc(OC)c(F)cc4c3)cc2)CC1` [Example 444, 1-{4-[4-(6-Fluoro-7-methoxyquinolin-3-yl)-phenoxy]-piperidin-1-yl}-propan-1-one] was tested, and the IC50 was 1000 to 10000 nM.
For `CCC(=O)N1CCC(Oc2ccc(-c3cc(O)c4ccnn4c3)cc2)CC1` [Example 426, 1-{4-[4-(4-Hydroxypyrazolo[1,5-a]pyridin-6-yl)-phenoxy]-piperidin-1-yl}-propan-1-one], the IC50 was 1000 to 10000 nM.
For `CCC(=O)N1[C@@H]2CC[C@H]1C[C@@H](Oc1ccc(-c3ccc4cccnc4c3C)cc1)C2` [Example 369, 1-{endo-3-[4-(8-Methylquinolin-7-yl)-phenoxy]-8-aza-bicyclo[3.2.1]oct-8-yl}-propan-1-one, HCl], the IC50 was 100 to 999 nM.
For `Cc1c(-c2ccc(O[C@H]3CCN(C(=O)[C@H]4CCCO4)C[C@H]3F)cc2)ccc2cccnc12` [Example 366, {cis-3-Fluoro-4-[4-(8-methylquinolin-7-yl)-phenoxy]-piperidin-1-yl}-(R)-tetrahydrofuran-2-yl-methanone HCl], the IC50 was 1 to 99 nM.
Work on `O=C(N1CCC(Oc2ccc(-c3cnc4ccccc4c3)cc2)CC1)N1CCCO1` [Example 73, Isoxazolidin-2-yl-[4-(4-quinolin-3-yl-phenoxy)-piperidin-1-yl]-methanone] yielded an IC50 of 1 to 99 nM.
`CC(C)C(=O)N1CCC(Oc2ccc(-c3ccc4occc4c3)cc2)CC1` [Example 9, 1-[4-(4-Benzofuran-5-yl-phenoxy)-piperidin-1-yl]-2-methyl-propan-1-one] gave an IC50 of 1000 to 10000 nM.
Work on `Cc1c(-c2ccc(OC3CCN(C(=O)C4CC4)CC3)cc2)ccc2ncnn12` [Example 314, Cyclopropyl-{4-[4-(5-methyl-[1,2,4]triazolo[1,5-a]pyridin-6-yl)-phenoxy]-piperidin-1-yl}-methanone] yielded an IC50 of 1000 to 10000 nM.
Compound `COc1cc2cc(-c3ccc(OC4CCN(C(=O)[C@H]5CCCO5)CC4)cc3)ccc2cn1` [Example 418, {4-[4-(3-Methoxy-isoquinolin-6-yl)-phenoxy]-piperidin-1-yl}-(R)-tetrahydrofuran-2-yl-methanone] has an IC50 of 1 to 99 nM.
In the case of `O=C(C1CC1)N1CCC(Oc2ccc(-c3ccc4cccnc4c3OCCN3CCOCC3)cc2)CC1` [Example 172, Cyclopropyl-(4-{4-[8-(2-morpholin-4-yl-ethoxy)-quinolin-7-yl]-phenoxyl}-piperidin-1-yl)-methanone, 2HCl], the IC50 is reported as 1000 to 10000 nM.
